In US20250345307A1, “SYNTHETIC […] BROAD-SPECTRUM ANTIVIRAL ACTIVITIES AND USES THEREOF” (priority 2020, published 2025):
Entries after “also recorded” stand apart in the source; their conditions may differ. Like-named read-outs stand apart in the source and are kept apart here.

Tests used:
[1] = tested on: persistently HEV-infected A549 cells; conditions: 2 nM, 72 h
tumor growth = conditions: xenograft mouse model; cited from earlier work
[2] = mice, cited from earlier work
HCoV-229E [3] = experiment: microbe, parasite or virus in culture; assay type: cell-based, human coronavirus 229E
MERS-CoV [4] = experiment: microbe, parasite or virus in culture; assay type: cell-based, Middle East respiratory syndrome coronavirus
LASV = experiment: microbe, parasite or virus in culture; assay type: cell-based, Lassa mammarenavirus; conditions: for EC50: Mammarenavirus lassaense, Hepatocyte, in Mus musculus
CCHFV = experiment: microbe, parasite or virus in culture; assay type: cell-based, Crimean-Congo hemorrhagic fever virus; conditions: for EC50: Orthonairovirus haemorrhagiae, Hepatocyte, in Mus musculus
ZIKV = experiment: Antiviral activity against ZIKV (strain 976 Uganda) in A549 cells, intracellular ZIKV genomes by qRT-PCR; assay type: cell-based; conditions: Zika virus
HCoV-229E [5] = assay type: cell-based, human coronavirus 229E
HEV = assay type: cell-based, hepatitis E virus
[6] = tested on: eIF4A-dependent translation; experiment: cells; assay type: cell-based; conditions: for inhibition at 0.01 µM: read-out: inhibition of translation of the (AG)15 construct
SARS-CoV-2 [7] = assay type: cell-based, severe acute respiratory syndrome coronavirus 2
murine hepatocytes = conditions: for CC50: mouse
A549 cells = conditions: human
HCoV-229E [8] = assay type: cell-based, human coronavirus 229E; remark: listed apart in the source
HCoV-229E [9] = assay type: cell-based, human coronavirus 229E; remark: listed apart in the source
HCoV-229E [10] = experiment: Immunofluorescence of nsp8 and dsRNA in HCoV-229E-infected MRC-5 cells; assay type: cell-based, human coronavirus 229E; conditions: MRC-5, MOI 1, 24 hpi
SARS-CoV-2 [11] = experiment: microbe, parasite or virus in culture; assay type: cell-based, severe acute respiratory syndrome coronavirus 2
SARS-CoV-2 [12] = assay type: cell-based, severe acute respiratory syndrome coronavirus 2; remark: listed apart in the source
SARS-CoV-2 [13] = experiment: Immunofluorescence of viral dsRNA in SARS-CoV-2-infected Vero E6 cells; assay type: cell-based, severe acute respiratory syndrome coronavirus 2; conditions: Vero E6, MOI 1, 24 h p.i.
NHBE cells = experiment: Cytotoxicity in differentiated NHBE cells by light microscopy; assay type: cell-based, human; conditions: 100 nM
HCoV-229E [14] = conditions: Müller et al. [2020]; read-out: EC50 reported previously for HCoV-229E; cited from earlier work
MERS-CoV [15] = conditions: read-out: EC50 reported previously for MERS-CoV; cited from earlier work
[16] = Middle East respiratory syndrome-related coronavirus, MRC5

For CR-31-B, the “cytotoxic effects (in words)” value (MRC-5 cells) is given as “no major cytotoxic effects”, the “reduction of cell viability” value [1] is given as “not cytotoxic” and the tumor growth (tumor growth) is given as “reduced tumor growth efficiently”. For the same compound, the “serum levels of aminotransferases (ALT and AST), albumin, total bilirubin, creatinine” value ([2]; two weeks after cessation of treatment) was “not significantly changed”, the “body weight, number of blood cells” value [2] was “did not change” and the “toxicity in the gastrointestinal tract” value [2] was “no toxicity could be observed”.
For `COC(=O)[C@H]1[C@@H](O)[C@@]2(O)c3c(OC)cc(O[C@@H]4O[C@@H]([C@H](O)CO)CO[C@H]4OC)cc3O[C@@]2(c2ccc(OC)cc2)[C@@H]1c1ccccc1` [Silvestrol, methyl(1R,2R,3S,3aR,8bS)-6-[[(2S,3R,6R)-6-[(1R)-1,2-dihydroxyethyl]-3-methoxy-1,4-dioxan-2-yl]oxy]-1,8b-dihydroxy-8-methoxy-3a-(4-methoxyphenyl)-3-phenyl-2,3-dihydro-1H-cyclopenta[b][1]benzofuran-2-carboxylate, reference compound], the EC50 (HCoV-229E [3]; Human coronavirus 229E, MRC5) was 3 nM, the EC50 (MERS-CoV [4]; [16]) was 1.3 nM and the “antiviral activity against LASV and CCHFV (in words)” value (from here on “antiviral activity … (in words)”) (LASV) was “potent antiviral activity”. For the same compound, the “virus titer drop, LASV-infected cells” value (LASV) was “approximately 4 log”, the EC50 (LASV) was 50.7 nM and the EC50 (LASV; read-out: EC50 values) was 20 to 50 nM. The “virus titer drop, CCHFV-infected cells” value (CCHFV) was about 3 log, the EC50 (CCHFV) was 28.5 nM and the EC50 (ZIKV; A549) was 1.08 nM. For the same compound, the infectious virus production (HCoV-229E [5]) was “undetectable levels”, the “reduction of virus titer in the supernatant” value (HCoV-229E [5]) was “similar” and the “antiviral effect on extracellular HEV RNA levels” value (HEV) was “antiviral activity”. The “induction of luciferase activity” value [6] was 1.5 fold, the “inhibitory effect, destabilized HEV 5′-UTR hairpin” value [6] was “gradual loss of the inhibitory effect” and the “luciferase activity, HEVgt3c 5′-UTR” value [6] was “reduced luciferase activity”. The “reporter activity, VP35-HP only” value [6] was “sufficient to mediate translation inhibition”, the “reporter activity, VP35-HP+(AG)5” value [6] was “slightly increased translation inhibition” and the “sensitivity of translation, EBOV VP35 5′-UTR” value [6] was “sensitive”. The “sensitivity to translation inhibition, 5′-UTRs of HCoV-229E, MERS-CoV and EBOV VP30” value [6] was “similarly sensitive”, the “sensitivity, HEVgt3c-Purine 5′-UTR” value [6] was “became sensitive” and the inhibition at 0.01 µM [6] was about 55%. For the same compound, the “SARS-CoV-2 replication / titers” value (SARS-CoV-2 [7]) was “completely abolished”, the CC50 (MRC-5 cells; human) was over 10000 nM and the “cytotoxicity (in words)” value (murine hepatocytes) was “no detectable cytotoxicity”. The CC50 (murine hepatocytes) was over 5000 nM, the CC50 (A549 cells) was 9.42 nM and the tumor growth (tumor growth) was “reduced tumor growth efficiently”.
In the case of `CONC(=O)[C@H]1[C@@H](O)[C@@]2(O)c3c(OC)cc(OC)cc3O[C@@]2(c2ccc(OC)cc2)[C@@H]1c1ccccc1` [CR-31-B (−)], the EC50 (HCoV-229E [3]) is reported as 2.88 nM, the EC50 (HCoV-229E [3]; Human coronavirus 229E, MRC5) is reported as 3.49 nM and the EC50 (MERS-CoV [4]) is reported as 1.87 nM. The MERS-CoV titer reduction (MERS-CoV [4]) was “about 5 log phases”, the EC50 (MERS-CoV [4]; [16]) was 2.09 nM and the “antiviral activity … (in words)” value (LASV) was “potent antiviral activity”. For the same compound, the “virus titer drop, LASV-infected cells” value (LASV) was “approximately 4 log”, the EC50 (LASV) was 36.1 nM and the EC50 (LASV; read-out: EC50 values) was 20 to 50 nM. For the same compound, the “virus titer drop, CCHFV-infected cells” value (CCHFV) was about 3 log, the EC50 (CCHFV) was 20 nM and the EC50 (ZIKV; A549 cells, MOI 0.1, ZIKV genomes by qRT-PCR, 24 hpi, read-out: EC50) was 1.13 nM. The “Coronavirus N-protein levels” value (HCoV-229E [8]) was “strongly reduced”, the “genomic and subgenomic RNA levels of HCoV-229E” value (HCoV-229E [9]) was “reduced” and the “formation of viral replication/transcription complexes” value (HCoV-229E [10]) was “reduced”. For the same compound, the infectious virus production (HCoV-229E [5]) was “undetectable levels”, the “reduction of virus titer in the supernatant” value (HCoV-229E [5]) was “about 1.5 orders of magnitude” and the “antiviral effect on extracellular HEV RNA levels” value (HEV) was “slightly weaker; also recorded: some antiviral activity”. For the same compound, the “induction of luciferase activity” value [6] was 1.5 fold, the “reporter activity, VP35-HP only” value [6] was “about twofold” and the “reporter activity, VP35-HP+(AG)5” value [6] was “reduced back to basic levels”. For the same compound, the “sensitivity of translation, EBOV VP35 5′-UTR” value [6] was “insensitive”, the “sensitivity to eIF4A-dependent translation inhibition, 5′-UTRs of SARS-CoV-2, HCoV-229E and MERS-CoV” value [6] was “similarly sensitive” and the “sensitivity to translation inhibition, 5′-UTRs of HCoV-229E, MERS-CoV and EBOV VP30” value [6] was “similarly sensitive”. For the same compound, the “sensitivity, HEVgt3c-Purine 5′-UTR” value [6] was “became sensitive”, the inhibition at 0.01 µM [6] was about 80% and the “selectivity index (CC50/EC50)” value (SARS-CoV-2 [11]) was over 50. The EC50 (SARS-CoV-2 [11]; Severe acute respiratory syndrome coronavirus 2, Vero C1008, 24 h) was about 1.8 nM, the “Viral nucleocapsid (N) protein levels” value (SARS-CoV-2 [12]) was “drastically reduced; also recorded: moderately reduced” and the “replicative organelles active in viral RNA synthesis (dsRNA)” value (SARS-CoV-2 [13]) was “profound reduction”. The “SARS-CoV-2 replication / titers” value (SARS-CoV-2 [7]) was “undetectable levels”, the “reduction of SARS-CoV-2 titers” value (SARS-CoV-2 [7]) was “about 4 logs” and the “reduction of production of infectious virus progeny” value (SARS-CoV-2 [7]) was “approximately 1.5 log steps”. For the same compound, the “cytotoxicity by light microscopy” value (NHBE cells) was “No obvious cytotoxicity”, the “cytotoxicity (in words)” value (MRC-5 cells) was “no major cytotoxicity” and the CC50 (MRC-5 cells; human) was over 5000 nM. The “reduction of cell viability” value (MRC-5 cells; human) was 10-25%, the “cytotoxicity (in words)” value (murine hepatocytes) was “no detectable cytotoxicity” and the CC50 (murine hepatocytes) was over 5000 nM. The EC50 (HCoV-229E [14]) was 2.88 nM, the EC50 (MERS-CoV [15]) was 1.87 nM and the “reduction of cell viability” value [1] was “no major cytotoxic effects”. The “cytotoxicity (in words)” value (Vero E6 cells) was “No major cytotoxicity” and the “cell viability reduced by” value (Vero E6 cells; African green monkey) was 10-25%.
For `CONC(=O)[C@@H]1[C@H](O)[C@]2(O)c3c(OC)cc(OC)cc3O[C@]2(c2ccc(OC)cc2)[C@H]1c1ccccc1` [CR-31-B (+)], the “antiviral activity … (in words)” value (LASV) was “no antiviral effects”, the “Coronavirus N-protein levels” value (HCoV-229E [8]) was “no detectable effect” and the infectious virus production (HCoV-229E [5]) was “did not significantly reduce viral replication”. The “Viral nucleocapsid (N) protein levels” value (SARS-CoV-2 [12]) was “not affected”, the “SARS-CoV-2 replication / titers” value (SARS-CoV-2 [7]) was “did not affect viral replication” and the “cytotoxicity (in words)” value (MRC-5 cells) was “no major cytotoxicity”. For the same compound, the “reduction of cell viability” value [1] was “no major cytotoxic effects”.
